Reference: patent publication US20220340597A1, “HEXAHYDRO-1H-PYRAZINO[1,2-A]PYRAZINE COMPOUNDS FOR THE TREATMENT OF AUTOIMMUNE DISEASE” (Hoffmann-La Roche Inc., priority 2019, published 2022)

Key:
human TLR7 = molecular target: T1, human TLR7 (Homo sapiens, UniProt Q9NYK1); assay: HEK293-Blue-hTLR-7 cells assay; type: cell-based; settings: HEK293-Blue-hTLR7 cells, R848 stimulation, 20 hrs, SEAP reporter; read-out: HEK/hTLR7 IC50
T1 construct: host or cells: HEK293 (HEK-Blue hTLR7)
T1 sequence (Q9NYK1 27-1049): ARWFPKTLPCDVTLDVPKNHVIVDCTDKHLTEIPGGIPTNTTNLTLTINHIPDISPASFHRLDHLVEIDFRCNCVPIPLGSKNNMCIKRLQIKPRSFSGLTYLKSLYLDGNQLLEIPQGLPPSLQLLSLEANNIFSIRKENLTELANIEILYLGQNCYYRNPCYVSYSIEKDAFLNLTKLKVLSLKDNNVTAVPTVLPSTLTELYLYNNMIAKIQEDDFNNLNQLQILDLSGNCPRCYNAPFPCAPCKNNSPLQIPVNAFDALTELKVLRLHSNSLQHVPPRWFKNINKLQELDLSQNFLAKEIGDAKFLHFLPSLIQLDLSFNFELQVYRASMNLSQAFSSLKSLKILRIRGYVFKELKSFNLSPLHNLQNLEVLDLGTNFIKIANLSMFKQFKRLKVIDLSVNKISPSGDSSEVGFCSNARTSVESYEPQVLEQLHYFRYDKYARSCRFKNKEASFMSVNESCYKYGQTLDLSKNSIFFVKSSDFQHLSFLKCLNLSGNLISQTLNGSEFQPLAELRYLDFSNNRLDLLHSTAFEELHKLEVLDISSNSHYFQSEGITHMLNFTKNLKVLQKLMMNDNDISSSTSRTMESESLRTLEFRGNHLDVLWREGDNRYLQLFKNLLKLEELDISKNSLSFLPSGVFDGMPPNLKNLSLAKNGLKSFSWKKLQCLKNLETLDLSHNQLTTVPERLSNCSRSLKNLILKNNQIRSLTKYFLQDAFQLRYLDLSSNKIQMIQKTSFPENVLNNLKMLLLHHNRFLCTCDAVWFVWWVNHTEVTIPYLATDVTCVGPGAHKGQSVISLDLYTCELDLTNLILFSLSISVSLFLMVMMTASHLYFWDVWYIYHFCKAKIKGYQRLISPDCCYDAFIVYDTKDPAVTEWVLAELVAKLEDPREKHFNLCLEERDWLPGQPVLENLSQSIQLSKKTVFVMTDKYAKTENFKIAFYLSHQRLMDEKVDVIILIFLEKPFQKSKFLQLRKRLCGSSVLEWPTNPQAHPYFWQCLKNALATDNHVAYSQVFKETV

hERG channel = molecular target: T2, hERG channel (Homo sapiens, UniProt Q12809); assay: hERG channel inhibition assay (patch-clamp, CHOhERG cells); type: cell-based; settings: for IC50 / IC20: CHOhERG cells, whole-cell patch-clamp; for IC20: human, CHO cells stably expressing hERG (CHOhERG); for hERG IC20/TLR7 IC50 / hERG IC20/TLR8 IC50 / hERG IC20/TLR9 IC50: safety ratio
T2 construct: expressed in transfected cells; host or cells: CHO (Chinese hamster ovary), CHOhERG
T2 sequence (Q12809 whole entry): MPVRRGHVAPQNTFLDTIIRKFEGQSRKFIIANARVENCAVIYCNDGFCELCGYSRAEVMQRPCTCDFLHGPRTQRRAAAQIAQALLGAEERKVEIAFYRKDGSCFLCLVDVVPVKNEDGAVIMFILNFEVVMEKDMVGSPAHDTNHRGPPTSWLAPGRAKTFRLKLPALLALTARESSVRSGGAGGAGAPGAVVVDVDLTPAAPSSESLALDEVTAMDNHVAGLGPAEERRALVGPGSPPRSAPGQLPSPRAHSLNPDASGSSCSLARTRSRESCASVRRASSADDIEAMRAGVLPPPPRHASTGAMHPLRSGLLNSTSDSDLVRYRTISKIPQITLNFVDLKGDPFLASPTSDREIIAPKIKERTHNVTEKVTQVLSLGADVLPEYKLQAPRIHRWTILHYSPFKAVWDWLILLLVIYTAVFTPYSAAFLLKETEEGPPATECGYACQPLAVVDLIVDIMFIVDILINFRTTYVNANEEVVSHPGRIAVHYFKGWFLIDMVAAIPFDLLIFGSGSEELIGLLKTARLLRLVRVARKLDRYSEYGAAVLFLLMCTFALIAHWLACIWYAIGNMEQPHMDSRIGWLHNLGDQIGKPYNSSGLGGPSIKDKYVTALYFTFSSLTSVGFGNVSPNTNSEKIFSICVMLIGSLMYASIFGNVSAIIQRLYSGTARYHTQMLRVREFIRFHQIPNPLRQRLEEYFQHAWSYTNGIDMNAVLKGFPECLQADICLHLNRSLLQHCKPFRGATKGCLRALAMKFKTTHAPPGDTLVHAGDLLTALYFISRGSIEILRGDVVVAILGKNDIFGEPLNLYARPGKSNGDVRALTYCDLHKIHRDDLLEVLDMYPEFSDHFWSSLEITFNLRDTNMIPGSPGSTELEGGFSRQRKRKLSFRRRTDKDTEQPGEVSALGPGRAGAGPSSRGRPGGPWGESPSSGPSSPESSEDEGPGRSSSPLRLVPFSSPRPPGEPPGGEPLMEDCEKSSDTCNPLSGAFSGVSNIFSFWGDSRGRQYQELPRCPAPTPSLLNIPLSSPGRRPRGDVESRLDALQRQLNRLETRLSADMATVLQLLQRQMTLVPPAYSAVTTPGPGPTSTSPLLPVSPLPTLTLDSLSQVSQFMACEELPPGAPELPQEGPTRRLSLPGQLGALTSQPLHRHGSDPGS
Method in brief: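 Whole-cell voltage-clamp recordings of IKhERG in CHO cells stably expressing human hERG, stimulated at 0.1 Hz. Compound applied at rising concentrations, each held 3–10 min to reach steady state; current amplitude and kinetics compared with pre-drug control set as 100%.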

Structure (SMILES) | IC50 (human TLR7) | IC50 (hERG channel) | IC20 (hERG channel) | hERG IC20/TLR7 IC50 (hERG channel) | hERG IC20/TLR8 IC50 (hERG channel) | hERG IC20/TLR9 IC50 (hERG channel)
C[C@@H]1CN(c2ccc(C#N)c3ncccc23)C[C@@H]2CN(Cc3ccc4c(c3)CNCC4)CCN21 (relative stereo) [Example 1] | 0.017 µM | > 20 µM | > 10 µM | >588 | >1000 | >172
[2H]c1ccc2c(N3C[C@@H]4CN(Cc5ccc(N6CC7(CN(C)C7)C6)nc5C)CCN4[C@H](C)C3)ccc(C#N)c2n1 [Example 80, 5-[(4R,9aS)-4-methyl-8-[[2-methyl-6-(6-methyl-2,6-diazaspiro[3.3]heptan-2-yl)-3-pyridyl]methyl]-3,4,6,7,9,9a-hexahydro-1H-pyrazino[1,2-a]pyrazin-2-yl]-2-deuterio-quinoline-8-carbonitrile] | 0.023 µM | > 20 µM | > 10 µM | >434 | >2000 | >312
[2H]c1ccc2c(N3C[C@@H]4CN(Cc5ccc(N[C@H]6CNC[C@H]6F)nc5C)CCN4[C@H](C)C3)ccc(C#N)c2n1 [Example 82, 5-[(4R,9aS)-8-[[6-[[(3S,4R)-4-fluoropyrrolidin-3-yl]amino]-2-methyl-3-pyridyl]methyl]-4-methyl-3,4,6,7,9,9a-hexahydro-JH-pyrazino[1,2-a]pyrazin-2-yl]-2-deuterio-quinoline-8-carbonitrile] | 0.012 µM | > 20 µM | > 10 µM | >833 | >3333 | >243
[2H]c1ccc2c(N3C[C@@H]4CN(Cc5ccc(N6CC7CNCC(C6)O7)nc5C)CCN4[C@H](C)C3)ccc(C#N)c2n1 [Example 83, 5-[(4R,9aS)-4-methyl-8-[[2-methyl-6-(9-oxa-3,7-diazabicyclo[3.3.1]nonan-3-yl)-3-pyridyl]methyl]-3,4,6,7,9,9a-hexahydro-1H-pyrazino[1,2-a]pyrazin-2-yl]-2-deuterio-quinoline-8-carbonitrile] | 0.017 µM | > 20 µM | > 10 µM | >588 | >1428 | >196
[2H]c1ccc2c(N3C[C@@H]4CN(Cc5ccc(N6C[C@@H]7C[C@H]6CN7)nc5C)CCN4[C@H](C)C3)ccc(C#N)c2n1 [Example 92, 5-[(4R,9aS)-8-[[6-[(1S,4S)-2,5-diazabicyclo[2.2.1]heptan-2-yl]-2-methyl-3-pyridyl]methyl]-4-methyl-3,4,6,7,9,9a-hexahydro-1H-pyrazino[1,2-a]pyrazin-2-yl]-2-deuterio-quinoline-8-carbonitrile] | 0.006 µM | > 20 µM | > 10 µM | >1666 | >1111 | >294
Cc1cc(N2CCNCC2)cnc1N1CCN2[C@@H](C1)CN(c1cc(=O)n(C)c3ncccc13)C[C@H]2C [Example 93, 4-[(4R,9aR)-4-methyl-8-(3-methyl-5-piperazin-1-yl-2-pyridyl)-3,4,6,7,9,9a-hexahydro-1H-pyrazino[1,2-a]pyrazin-2-yl]-1-methyl-1,8-naphthyridin-2-one] | 0.01 µM | > 20 µM | > 10 µM | >1000 | >163 | >53
[2H]c1ccc2c(N3C[C@@H]4CN(Cc5ccc(N6C[C@H]7NCCO[C@@H]7C6)nc5C)CCN4[C@H](C)C3)ccc(C#N)c2n1 [Example 98, 5-[(4R,9aS)-8-[[6-[(4aR,7aR)-3,4,4a,5,7,7a-hexahydro-2H-pyrrolo[3,4-b][1,4]oxazin-6-yl]-2-methyl-3-pyridyl]methyl]-4-methyl-3,4,6,7,9,9a-hexahydro-1H-pyrazino[1,2-a]pyrazin-2-yl]-2-deuterio-quinoline-8-carbonitrile] | 0.024 µM | > 20 µM | > 10 µM | >416 | >1000 | >172
